Data from ChEMBL document CHEMBL3885861, “Open TG-GATES”.

Species on record: Rattus norvegicus
Assay: Open TG-GATES - Regimen: Single
Format: toxicity, organism-based, Sprague-Dawley
Set-up: regimen Single, gender Male, age 6 weeks
Settings: in vivo, sc, 0.2 mg/kg, route subcutaneous injection, dose 200 ug/Kg, dose level Middle; for APTT / Bas / Eos / Fbg / Hb / Ht / Lym / MCH / MCHC / MCV / Mono / Neu / PT / Plat / RBC / Ret / WBC: tissue Blood; for KIDNEY_L / KIDNEY_R / KIDNEY_TOTAL: tissue Kidney; for LIVER: tissue Liver; for A/G / ALP / ALT / AST / BUN / CRE / Ca / Cl / DBIL / GLC / IP / K / LDH / Na / PL / RALB / TBIL / TC / TG / TP / gamma-GTP: tissue Plasma

CC(=O)O.N=C(N)NCCC[C@@H](NC(=O)[C@@H]1CCCN1C(=O)[C@@H]1CSSCCC(=O)N[C@@H](Cc2ccc(O)cc2)C(=O)N[C@@H](Cc2ccccc2)C(=O)N[C@@H](CCC(N)=O)C(=O)N[C@@H](CC(N)=O)C(=O)N1)C(=O)NCC(N)=O [DESMOPRESSIN ACETATE]
TERMINAL_BW (3 h): 206.2 g
APTT (3 h): 17.6 s
Bas (3 h): 0%
Eos (3 h): 1%
Fbg (3 h): 256.3 mg/dL
Hb (3 h): 12.8 g/dL
Ht (3 h): 39.6%
Lym (3 h): 71.8%
MCH (3 h): 21.1 pg
MCHC (3 h): 32.3%
MCV (3 h): 65.1 fL
Mono (3 h): 7.6%
Neu (3 h): 19.6%
PT (3 h): 12.2 s
Plat (3 h): 112.4 x10_4/uL
RBC (3 h): 609.4 x10_4/ul
Ret (3 h): 8.8%
WBC (3 h): 77 x10_2/uL
KIDNEY_L (3 h): 0.9 g
KIDNEY_R (3 h): 1 g
KIDNEY_TOTAL (3 h): 1.9 g
LIVER (3 h): 9.9 g
A/G (3 h): 2
ALP (3 h): 1405.8 IU/L
ALT (3 h): 44.4 IU/L
AST (3 h): 81.2 IU/L
BUN (3 h): 23.8 mg/dL
CRE (3 h): 0.4 mg/dL
Ca (3 h): 11.8 mg/dL
Cl (3 h): 101 meq/L
DBIL (3 h): 0.012 mg/dL
GLC (3 h): 205.6 mg/dL
IP (3 h): 10.8 mg/dL
K (3 h): 4.6 meq/L
LDH (3 h): 272.6 IU/L
Na (3 h): 134.6 meq/L
PL (3 h): 145.8 mg/dL
RALB (3 h): 3.8 g/dL
TBIL (3 h): 0.05 mg/dL
TC (3 h): 77 mg/dL
TG (3 h): 99.8 mg/dL
TP (3 h): 5.7 g/dL
gamma-GTP (3 h): 0.8 IU/L
TERMINAL_BW (6 h): 205.6 g
APTT (6 h): 18.4 s
Bas (6 h): 0%
Eos (6 h): 1.6%
Fbg (6 h): 244.6 mg/dL
Hb (6 h): 13 g/dL
Ht (6 h): 39.7%
Lym (6 h): 71.8%
MCH (6 h): 21.4 pg
MCHC (6 h): 32.8%
MCV (6 h): 65.3 fL
Mono (6 h): 8.8%
Neu (6 h): 18%
PT (6 h): 12.5 s
Plat (6 h): 124.8 x10_4/uL
RBC (6 h): 609.4 x10_4/ul
Ret (6 h): 8.7%
WBC (6 h): 102.8 x10_2/uL
KIDNEY_L (6 h): 1 g
KIDNEY_R (6 h): 1 g
KIDNEY_TOTAL (6 h): 2 g
LIVER (6 h): 9.6 g
A/G (6 h): 2.1
ALP (6 h): 1316 IU/L
ALT (6 h): 34.8 IU/L
AST (6 h): 63.2 IU/L
BUN (6 h): 27.4 mg/dL
CRE (6 h): 0.3 mg/dL
Ca (6 h): 10.9 mg/dL
Cl (6 h): 101 meq/L
DBIL (6 h): 0.016 mg/dL
GLC (6 h): 200.6 mg/dL
IP (6 h): 10.3 mg/dL
K (6 h): 4.6 meq/L
LDH (6 h): 127.6 IU/L
Na (6 h): 135.4 meq/L
PL (6 h): 155.6 mg/dL
RALB (6 h): 3.7 g/dL
TBIL (6 h): 0.064 mg/dL
TC (6 h): 84.2 mg/dL
TG (6 h): 76.2 mg/dL
TP (6 h): 5.5 g/dL
gamma-GTP (6 h): 1 IU/L
TERMINAL_BW (9 h): 199.6 g
APTT (9 h): 17.9 s
Bas (9 h): 0%
Eos (9 h): 1.2%
Fbg (9 h): 239.4 mg/dL
Hb (9 h): 13.3 g/dL
Ht (9 h): 41%
Lym (9 h): 74.4%
MCH (9 h): 21.4 pg
MCHC (9 h): 32.4%
MCV (9 h): 66.2 fL
Mono (9 h): 7.4%
Neu (9 h): 17%
PT (9 h): 12.5 s
Plat (9 h): 112.4 x10_4/uL
RBC (9 h): 620 x10_4/ul
Ret (9 h): 9.2%
WBC (9 h): 93.8 x10_2/uL
KIDNEY_L (9 h): 1 g
KIDNEY_R (9 h): 1 g
KIDNEY_TOTAL (9 h): 2.1 g
LIVER (9 h): 8.4 g
A/G (9 h): 2
ALP (9 h): 1325.8 IU/L
ALT (9 h): 31 IU/L
AST (9 h): 60.4 IU/L
BUN (9 h): 28.4 mg/dL
CRE (9 h): 0.3 mg/dL
Ca (9 h): 11.2 mg/dL
Cl (9 h): 102.6 meq/L
DBIL (9 h): 0.016 mg/dL
GLC (9 h): 195.6 mg/dL
IP (9 h): 10.6 mg/dL
K (9 h): 5.4 meq/L
LDH (9 h): 104.4 IU/L
Na (9 h): 135.4 meq/L
PL (9 h): 144 mg/dL
RALB (9 h): 3.7 g/dL
TBIL (9 h): 0.068 mg/dL
TC (9 h): 84 mg/dL
TG (9 h): 50.2 mg/dL
TP (9 h): 5.5 g/dL
gamma-GTP (9 h): 0.8 IU/L
TERMINAL_BW (24 h): 218.4 g
APTT (24 h): 16.7 s
Bas (24 h): 0%
Eos (24 h): 1%
Fbg (24 h): 245.4 mg/dL
Hb (24 h): 12.6 g/dL
Ht (24 h): 38.9%
Lym (24 h): 77.4%
MCH (24 h): 21.1 pg
MCHC (24 h): 32.4%
MCV (24 h): 65.3 fL
Mono (24 h): 6.4%
Neu (24 h): 15%
PT (24 h): 12.3 s
Plat (24 h): 123 x10_4/uL
RBC (24 h): 596.6 x10_4/ul
Ret (24 h): 10.6%
WBC (24 h): 103.4 x10_2/uL
KIDNEY_L (24 h): 1 g
KIDNEY_R (24 h): 1 g
KIDNEY_TOTAL (24 h): 2 g
LIVER (24 h): 10.2 g
A/G (24 h): 2
ALP (24 h): 1597.6 IU/L
ALT (24 h): 40.2 IU/L
AST (24 h): 69.8 IU/L
BUN (24 h): 19.8 mg/dL
CRE (24 h): 0.4 mg/dL
Ca (24 h): 11.1 mg/dL
Cl (24 h): 103.6 meq/L
DBIL (24 h): 0 mg/dL
GLC (24 h): 197.4 mg/dL
IP (24 h): 8.5 mg/dL
K (24 h): 5.3 meq/L
LDH (24 h): 156.4 IU/L
Na (24 h): 137.2 meq/L
PL (24 h): 157 mg/dL
RALB (24 h): 3.6 g/dL
TBIL (24 h): 0.022 mg/dL
TC (24 h): 90.6 mg/dL
TG (24 h): 93 mg/dL
TP (24 h): 5.5 g/dL
gamma-GTP (24 h): 1.8 IU/L
